Measurements as given in paper PMC6271077, “Synthesis, Anticancer and Antibacterial Activity of Salinomycin N-Benzyl Amides” (Molecules, 2014).
In brackets after ≈: the same amount, converted by molar mass.

The compounds below were run on M. tuberculosis isoniazid-resistant strain (spec. 210) (assay: Tuberculostatic activity, test-tube dilution). Details: Mycobacterium tuberculosis, read-out: MIC M. tuberculosis Isoniazid-Resistant Strain.
Type: cell-based

Compound | MIC
CC[C@H](C(=O)NCc1ccc(Br)cc1)C1CC[C@H](C)C([C@@H](C)[C@H](O)[C@H](C)C(=O)[C@H](CC)C2O[C@]3(C=C[C@@H](O)C4(CC[C@@](C)(C5CC[C@](O)(CC)[C@H](C)O5)O4)O3)[C@H](C)C[C@@H]2C)O1 (some centres unmarked) [Br-p] | 100 µg/mL (≈ 109 µM)
CCC(C(=O)NCc1cccc(F)c1)C1CCC(C)C(C(C)C(O)C(C)C(=O)C(CC)C2OC3(C=CC(O)C4(CCC(C)(C5CCC(O)(CC)C(C)O5)O4)O3)C(C)CC2C)O1 (centres unmarked) [F-m] | > 100 µg/mL
NNC(=O)c1ccncc1 [Isoniazid, isoniazid, reference compound] | 6.25 µg/mL (≈ 45.6 µM)
CC[C@H](C(=O)NCc1ccc([N+](=O)[O-])cc1)C1CC[C@H](C)C([C@@H](C)[C@H](O)[C@H](C)C(=O)[C@H](CC)C2O[C@]3(C=C[C@@H](O)C4(CC[C@@](C)(C5CC[C@](O)(CC)[C@H](C)O5)O4)O3)[C@H](C)C[C@@H]2C)O1 (some centres unmarked) [NO2-p] | 50 µg/mL (≈ 56.5 µM)
CC[C@H](C(=O)NCc1ccc(F)cc1)C1CC[C@H](C)C([C@@H](C)[C@H](O)[C@H](C)C(=O)[C@H](CC)C2O[C@]3(C=C[C@@H](O)C4(CC[C@@](C)(C5CC[C@](O)(CC)[C@H](C)O5)O4)O3)[C@H](C)C[C@@H]2C)O1 (some centres unmarked) [F-p] | 50 µg/mL (≈ 58.3 µM)
CCC(C(=O)NCc1ccccc1[N+](=O)[O-])C1CCC(C)C(C(C)C(O)C(C)C(=O)C(CC)C2OC3(C=CC(O)C4(CCC(C)(C5CCC(O)(CC)C(C)O5)O4)O3)C(C)CC2C)O1 (centres unmarked) [NO2-o] | 100 µg/mL (≈ 113 µM)
CC[C@H](C(=O)NCc1ccc(Cl)cc1)C1CC[C@H](C)C([C@@H](C)[C@H](O)[C@H](C)C(=O)[C@H](CC)C2O[C@]3(C=C[C@@H](O)C4(CC[C@@](C)(C5CC[C@](O)(CC)[C@H](C)O5)O4)O3)[C@H](C)C[C@@H]2C)O1 (some centres unmarked) [Cl-p, p-chlorobenzyl amide of salinomycin] | > 100 µg/mL
CC[C@H](C(=O)NCc1ccccc1Cl)C1CC[C@H](C)C([C@@H](C)[C@H](O)[C@H](C)C(=O)[C@H](CC)C2O[C@]3(C=C[C@@H](O)C4(CC[C@@](C)(C5CC[C@](O)(CC)[C@H](C)O5)O4)O3)[C@H](C)C[C@@H]2C)O1 (some centres unmarked) [Cl-o] | > 100 µg/mL
CC[C@H](C(=O)NCc1cccc(Cl)c1)C1CC[C@H](C)C([C@@H](C)[C@H](O)[C@H](C)C(=O)[C@H](CC)C2O[C@]3(C=C[C@@H](O)C4(CC[C@@](C)(C5CC[C@](O)(CC)[C@H](C)O5)O4)O3)[C@H](C)C[C@@H]2C)O1 (some centres unmarked) [Cl-m] | > 100 µg/mL
CCC(C(=O)NCc1ccccc1F)C1CCC(C)C(C(C)C(O)C(C)C(=O)C(CC)C2OC3(C=CC(O)C4(CCC(C)(C5CCC(O)(CC)C(C)O5)O4)O3)C(C)CC2C)O1 (centres unmarked) [F-o] | 100 µg/mL (≈ 117 µM)
CC[C@@H](C(=O)[C@@H](C)[C@@H](O)[C@H](C)[C@@H]1O[C@@H]([C@@H](CC)C(=O)O)CC[C@@H]1C)[C@H]1O[C@]2(C=C[C@@H](O)[C@]3(CC[C@@](C)([C@H]4CC[C@](O)(CC)[C@H](C)O4)O3)O2)[C@H](C)C[C@@H]1C [SAL, Salinomycin] | 50 µg/mL (≈ 66.6 µM)
CC[C@H](C(=O)NCc1cccc([N+](=O)[O-])c1)C1CC[C@H](C)C([C@@H](C)[C@H](O)[C@H](C)C(=O)[C@H](CC)C2O[C@]3(C=C[C@@H](O)C4(CC[C@@](C)(C5CC[C@](O)(CC)[C@H](C)O5)O4)O3)[C@H](C)C[C@@H]2C)O1 (some centres unmarked) [NO2-m] | > 100 µg/mL
CC[C@H](C(=O)NCc1ccccc1Br)C1CC[C@H](C)C([C@@H](C)[C@H](O)[C@H](C)C(=O)[C@H](CC)C2O[C@]3(C=C[C@@H](O)C4(CC[C@@](C)(C5CC[C@](O)(CC)[C@H](C)O5)O4)O3)[C@H](C)C[C@@H]2C)O1 (some centres unmarked) [Br-o] | > 100 µg/mL
CC[C@H](C(=O)NCc1cccc(Br)c1)C1CC[C@H](C)C([C@@H](C)[C@H](O)[C@H](C)C(=O)[C@H](CC)C2O[C@]3(C=C[C@@H](O)C4(CC[C@@](C)(C5CC[C@](O)(CC)[C@H](C)O5)O4)O3)[C@H](C)C[C@@H]2C)O1 (some centres unmarked) [Br-m] | > 100 µg/mL
